Reference: BigSolDB 2.1

OC(Cn1cncn1)(Cn1cncn1)c1ccc(F)cc1F
solubility (mole fraction)
Conditions	in 1,4-dioxane	in THF	in chloroform	in ethanol	in methanol	in n-butanol	in n-propanol
298.15 K	0.0124	0.0121	0.0135	0.011	0.0141	0.0058	0.0115
303.15 K	0.0165	0.0155	0.0136	0.0147	0.0193	0.0066	0.0127
308.15 K	0.0194	0.0197	0.0139	0.017	0.0286	0.008	0.0148
313.15 K	0.0219	0.0225	0.0148	0.0231	0.0422	0.0102	0.0175
318.15 K	0.0257	0.0273	0.016	0.0284	0.06	0.0132	0.021
323.15 K	0.0304	0.0331	0.0181	0.0354	0.088	0.016	0.0278
